Results published in patent US20100227859A1, “TRICYCLIC COMPOUNDS AS MATRIX METALLOPROTEINASE INHIBITORS” (priority 2007, published 2010).

biological target: purified human MMP-12 enzyme (Homo sapiens, UniProt P39900); test: MMP-12 FRET assay; assay type: biochemical; settings: substrate 20 μM, room temperature
How it was run: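 Initial fluorescence rate (325/395 nm) of cleavage of MCA-Pro-Leu-Gly-Leu-Dpa(DNP)-Ala-Arg, 20 μM final, was followed for 30 min at room temperature after a 30 min enzyme–compound preincubation. Buffer: 50 mM HEPES pH 7.4, 100 mM NaCl, 5 mM CaCl2, 0.005% Brij-35, with 10% final DMSO. IC50 came from a Hill-type fit of rate versus inhibitor concentration.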

Chain of purified human MMP-12 enzyme (P39900 106-470): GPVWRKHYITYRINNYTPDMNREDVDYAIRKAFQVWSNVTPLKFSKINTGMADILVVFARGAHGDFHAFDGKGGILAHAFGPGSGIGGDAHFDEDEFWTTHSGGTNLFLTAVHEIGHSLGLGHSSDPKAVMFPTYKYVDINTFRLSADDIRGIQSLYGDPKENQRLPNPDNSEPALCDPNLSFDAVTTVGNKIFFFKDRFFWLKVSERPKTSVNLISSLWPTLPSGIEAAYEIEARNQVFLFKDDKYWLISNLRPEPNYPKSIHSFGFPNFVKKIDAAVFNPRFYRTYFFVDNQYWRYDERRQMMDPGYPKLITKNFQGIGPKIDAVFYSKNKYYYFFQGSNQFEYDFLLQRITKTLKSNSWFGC

IC50	Compound
19 nM	CC(C)[C@H](NS(=O)(=O)c1ccc2c(c1)sc1ccc(-c3ccsc3Cl)cc12)C(=O)O [Compound 52, (S)-2-(8-(2-chlorothiophen-3-yl)dibenzo[b,d]thiophene-3-sulfonamido)-3-methylbutanoic acid]
< 1.5 nM	CC(C)[C@H](NS(=O)(=O)c1ccc2c(c1)oc1ccc(C#Cc3cncn3C)cc12)C(=O)O [Compound 15, (S)-3-methyl-2-(8-((1-methyl-1H-imidazol-5-yl)ethynyl)dibenzo[b,d]furan-3-sulfonamido)butanoic acid]
289 nM	CC(C)[C@H](NS(=O)(=O)c1ccc2c(c1)sc1ccc(-c3cc4ccccc4s3)cc12)C(=O)O [Compound 46, (S)-2-(8-(benzo[b]thiophen-2-yl)dibenzo[b,d]thiophene-3-sulfonamido)-3-methylbutanoic acid]
< 1.5 nM	CC(C)[C@@H](NS(=O)(=O)c1ccc2oc3cc(-c4ccco4)ccc3c2c1)C(=O)O [Compound 98, (R)-2-(7-(furan-2-yl)dibenzo[b,d]furan-2-sulfonamido)-3-methylbutanoic acid]
1.8 nM	CC(C)[C@H](NS(=O)(=O)c1ccc2c(c1)oc1ccc(C(=N)NO)cc12)C(=O)O [Compound 82, (S)-2-(8-(N-hydroxycarbamimidoyl)dibenzo[b,d]furan-3-sulfonamido)-3-methylbutanoic acid]
18 nM	CC(C)[C@H](NS(=O)(=O)c1ccc2c(c1)oc1ccc(-c3nc(-c4ccc(F)cc4)cs3)cc12)C(=O)O [Compound 284, (S)-2-(8-(4-(4-fluorophenyl)thiazol-2-yl)dibenzo[b,d]furan-3-sulfonamido)-3-methylbutanoic acid]
< 1.5 nM	Cc1csc(-c2ccc3oc4cc(S(=O)(=O)N[C@H](C(=O)O)C(C)C)ccc4c3c2)c1 [Compound 33, (S)-3-methyl-2-(8-(4-methylthiophen-2-yl)dibenzo[b,d]furan-3-sulfonamido)butanoic acid]
< 1.5 nM	Cc1nc(C)c(-c2ccc3c(c2)oc2cc(S(=O)(=O)N[C@H](C(=O)O)C(C)C)ccc23)s1 [Compound 230, (S)-2-(7-(2,4-dimethylthiazol-5-yl)dibenzo[b,d]furan-3-sulfonamido)-3-methylbutanoic acid]
110 nM	CC(C)[C@H](NS(=O)(=O)c1ccc2c(c1)oc1ccc(-c3c(C(F)(F)F)n[nH]c3-c3ccccc3)cc12)C(=O)O [Compound 206, (S)-3-methyl-2-(8-(5-phenyl-3-(trifluoromethyl)-1H-pyrazol-4-yl)dibenzo[b,d]furan-3-sulfonamido)butanoic acid]
175 nM	CC(C)[C@H](NS(=O)(=O)c1ccc2c(c1)oc1ccc(C(=N)N3CCCC3)cc12)C(=O)O [Compound 127, (S)-2-(8-(imino(pyrrolidin-1-yl)methyl)dibenzo[b,d]furan-3-sulfonamido)-3-methylbutanoic acid]
13 nM	Cc1nc(CC(C)C)sc1-c1ccc2oc3cc(S(=O)(=O)N[C@H](C(=O)O)C(C)C)ccc3c2c1 [Compound 204, (S)-2-(8-(2-isobutyl-4-methylthiazol-5-yl)dibenzo[b,d]furan-3-sulfonamido)-3-methylbutanoic acid]
2.4 nM	CC(C)[C@H](NS(=O)(=O)c1ccc2c(c1)oc1ccc(C#CCN(C)C)cc12)C(=O)O [Compound 2, (S)-2-(8-(3-(dimethylamino)prop-1-ynyl)dibenzo[b,d]furan-3-sulfonamido)-3-methylbutanoic acid]
< 1.5 nM	CC(C)[C@H](NS(=O)(=O)c1ccc2c(c1)oc1ccc(-c3noc(-c4ccc(Cl)cc4Cl)n3)cc12)C(=O)O [Compound 270, (S)-2-(8-(5-(2,4-dichlorophenyl)-1,2,4-oxadiazol-3-yl)dibenzo[b,d]furan-3-sulfonamido)-3-methylbutanoic acid]
< 1.5 nM	CC(C)[C@H](NS(=O)(=O)c1ccc2c(c1)oc1ccc(-c3ccc4c(c3)OCO4)cc12)C(=O)O [Compound 308, (S)-2-(8-(benzo[d][1,3]dioxol-5-yl)dibenzo[b,d]furan-3-sulfonamido)-3-methylbutanoic acid]
< 1.5 nM	CC(C)[C@H](NS(=O)(=O)c1ccc2c(c1)oc1ccc(-c3cn[nH]c3)cc12)C(=O)O [Compound 23, (S)-2-(8-(1H-pyrazol-4-yl)dibenzo[b,d]furan-3-sulfonamido)-3-methylbutanoic acid]
34 nM	CC(C)[C@H](NS(=O)(=O)c1ccc2oc3cc(-c4noc(C(C)(C)C)n4)ccc3c2c1)C(=O)O [Compound 276, (S)-2-(7-(5-tert-butyl-1,2,4-oxadiazol-3-yl)dibenzo[b,d]furan-2-sulfonamido)-3-methylbutanoic acid]
< 1.5 nM	CC(C)[C@H](NS(=O)(=O)c1ccc2c(c1)sc1cc(-c3ccco3)ccc12)C(=O)O [Compound 193, (S)-2-(7-(furan-2-yl)dibenzo[b,d]thiophene-3-sulfonamido)-3-methylbutanoic acid]
< 1.5 nM	CC(C)[C@H](NS(=O)(=O)c1ccc2c(c1)oc1ccc(-c3ccc(C(F)(F)F)s3)cc12)C(=O)O [Compound 131, (S)-3-methyl-2-(8-(5-(trifluoromethyl)thiophen-2-yl)dibenzo[b,d]furan-3-sulfonamido)butanoic acid]

IC50	Compound
< 1.5 nM	CCCn1cc(-c2ccc3oc4cc(S(=O)(=O)N[C@H](C(=O)O)C(C)C)ccc4c3c2)cn1 [Compound 21, (S)-3-methyl-2-(8-(1-propyl-1H-pyrazol-4-yl)dibenzo[b,d]furan-3-sulfonamido)butanoic acid]
21 nM	CC(C)[C@H](NS(=O)(=O)c1ccc2c(c1)sc1ccc(-c3ccc[nH]3)cc12)C(=O)O [Compound 57, (S)-2-(8-(1H-pyrrol-2-yl)dibenzo[b,d]thiophene-3-sulfonamido)-3-methylbutanoic acid]
29 nM	Cc1noc(C)c1-c1ccc2c(c1)oc1ccc(S(=O)(=O)N[C@@H](C(=O)O)C(C)C)cc12 [Compound 145, (R)-2-(7-(3,5-dimethylisoxazol-4-yl)dibenzo[b,d]furan-2-sulfonamido)-3-methylbutanoic acid]
15 nM	COCC#Cc1ccc2c(c1)sc1cc(S(=O)(=O)N[C@@H](C(=O)O)C(C)C)ccc12 [Compound 90, (R)-2-(7-(3-methoxyprop-1-ynyl)dibenzo[b,d]thiophene-3-sulfonamido)-3-methylbutanoic acid]
4.6 nM	COCC#Cc1ccc2c(c1)sc1cc(S(=O)(=O)N[C@H](C(=O)O)C(C)C)ccc12 [Compound 65, (S)-2-(7-(3-methoxyprop-1-ynyl)dibenzo[b,d]thiophene-3-sulfonamido)-3-methylbutanoic acid]
< 1.5 nM	CC(C)[C@H](NS(=O)(=O)c1ccc2c(c1)oc1ccc(-c3nc4cc(F)ccc4s3)cc12)C(=O)O [Compound 219, (S)-2-(8-(5-fluorobenzo[d]thiazol-2-yl)dibenzo[b,d]furan-3-sulfonamido)-3-methylbutanoic acid]
21.8 nM	CC(=O)c1ccc(-c2ccc3c(c2)oc2ccc(S(=O)(=O)N[C@@H](C(=O)O)C(C)C)cc23)s1 [Compound 105, (R)-2-(7-(5-acetylthiophen-2-yl)dibenzo[b,d]furan-2-sulfonamido)-3-methylbutanoic acid]
2.8 nM	CC(C)[C@H](NS(=O)(=O)c1ccc2c(c1)oc1ccc(C3=NCCO3)cc12)C(=O)O [Compound 83, (S)-2-(8-(4,5-dihydrooxazol-2-yl)dibenzo[b,d]furan-3-sulfonamido)-3-methylbutanoic acid]
290 nM	COc1ncc(-c2ccc3c(c2)oc2ccc(S(=O)(=O)N[C@@H](C(=O)O)C(C)C)cc23)c(OC)n1 [Compound 115, (R)-2-(7-(2,4-dimethoxypyrimidin-5-yl)dibenzo[b,d]furan-2-sulfonamido)-3-methylbutanoic acid]
6.9 nM	CC(C)[C@@H](NS(=O)(=O)c1ccc2oc3cc(-c4cc5cc(F)ccc5[nH]4)ccc3c2c1)C(=O)O [Compound 122, (R)-2-(7-(5-fluoro-1H-indol-2-yl)dibenzo[b,d]furan-2-sulfonamido)-3-methylbutanoic acid]
< 1.5 nM	CCCc1ccc(-c2ccc3c(c2)oc2cc(S(=O)(=O)N[C@H](C(=O)O)C(C)C)ccc23)s1 [Compound 232, (S)-3-methyl-2-(7-(5-propylthiophen-2-yl)dibenzo[b,d]furan-3-sulfonamido)butanoic acid]
5.5 nM	CC(C)[C@H](NS(=O)(=O)c1ccc2c(c1)sc1ccc(-c3cn[nH]c3)cc12)C(=O)O [Compound 45, (S)-2-(8-(1H-pyrazol-4-yl)dibenzo[b,d]thiophene-3-sulfonamido)-3-methylbutanoic acid]
3.4 nM	CC(C)[C@H](NS(=O)(=O)c1ccc2c(c1)oc1cc(-c3ccc(C(C)(C)C)o3)ccc12)C(=O)O [Compound 231, (S)-2-(7-(5-tert-butylfuran-2-yl)dibenzo[b,d]furan-3-sulfonamido)-3-methylbutanoic acid]
6.2 nM	CCCc1ccc(-c2ccc3c(c2)oc2ccc(S(=O)(=O)N[C@H](C(=O)O)C(C)C)cc23)s1 [Compound 246, (S)-3-methyl-2-(7-(5-propylthiophen-2-yl)dibenzo[b,d]furan-2-sulfonamido)butanoic acid]
88 nM	CC(C)CCn1cc(-c2ccc3sc4cc(S(=O)(=O)N[C@H](C(=O)O)C(C)C)ccc4c3c2)cn1 [Compound 43, (S)-2-(8-(1-isopentyl-1H-pyrazol-4-yl)dibenzo[b,d]thiophene-3-sulfonamido)-3-methylbutanoic acid]
150 nM	CC(C)(C)c1nc(-c2ccc3c(c2)oc2ccc(S(=O)(=O)N[C@H](C(=O)O)C(C)(C)C)cc23)no1 [Compound 282, (S)-2-(7-(5-tert-butyl-1,2,4-oxadiazol-3-yl)dibenzo[b,d]furan-2-sulfonamido)-3,3-dimethylbutanoic acid]
< 1.5 nM	CC(C)[C@H](NS(=O)(=O)c1ccc2c(c1)oc1cc(-c3nc4ccc(F)cc4s3)ccc12)C(=O)O [Compound 237, (S)-2-(7-(6-fluorobenzo[d]thiazol-2-yl)dibenzo[b,d]furan-3-sulfonamido)-3-methylbutanoic acid]
